According to patent publication US20100247579A1, “THERAPEUTIC AGENT FOR CANCER” (priority 2007, published 2010):

Assays:
Format in all cases: in vivo, C57BL/6 mice
CD3e^+ T cells in blood [1] = experiment: T cell count in blood after CPA and T cell transfer, syngeneic tumor model C57BL/6-hB16F10; details: day 6 after cell administration; group A defined as 100%; CPA 100 mg/kg i.p. day 4
Procedure: Evaluation of the lymphocyte count was effected by measuring the leukocyte count and the T cell count contained in the blood sample collected from the mouse tail vein. A volume of 22 μL of the blood was collected into a 0.5 mL tube containing 3 μL of heparin sodium (manufactured by Mitsubishi Wellpharma Inc.) per one mouse. An aliquote of 15 μL was taken from the blood sample, added to a mixed solution of 14 μL of Flow-Count (manufactured by Beckman Coulter Inc.) and 0.5 μL of hamster anti-mouse CD3e FITC (manufactured by eBioscience Inc.), and the mixture was treated for 15 minutes. Thereafter, the erythrocytes were hemolysed with a low isotonic solution, and subjected to flow cytometry to calculate the rate of T cells and the recovery rate of T cells, with the CD3e^+ cells being as the T cells. […] […] Moreover, the recovery rate of the T cells was determined to be a ratio of the number of the T cells on day 4 after the cell administration relative to the number of the T cells immediately before the cell administration.
In a similar manner to item (5) of Example 1, expansion of mouse T cell population was carried out.
Using the mouse T cells which had been expanded in item (1) of Example 11, separation of the naive T-like cells and the effector T-like cells was performed similarly to item (2) of Example 10. […]

hB16F10 [2] = experiment: Antitumor activity (tumor size) after CPA and T cell transfer, syngeneic tumor model C57BL/6-hB16F10; details: day 11 after tumor inoculation; CPA 100 mg/kg i.p. day 4
Procedure: On the next day, individual mouse T cells prepared in item (2) of Example 11 was prepared with an RPMI 1640 medium to a density of 3.75×10^8 cells/mL, and the naive T-like cells and the effector T-like cells in 0.2 mL each were administered via the tail veins to each individual of group C and group D, respectively. In addition, the RPMI 1640 medium was administered to each individual of group A and group B in 0.2 mL each via the tail veins.
However, the tumor size was determined on days 11 and 13 after the tumor inoculation.

hB16F10 [3] = experiment: Antitumor activity (tumor size) after MMC and T cell transfer, syngeneic tumor model C57BL/6-hB16F10; details: day 14 after tumor inoculation; product of major and minor diameter
Procedure: Hair removal of about 9 cm^2 in the right inguina of 7-week old female C57BL/6 mice was effected under anesthesia, and 0.1 mL of hB16F10 suspended in an RPMI 1640 medium to a density of 4×10^6 cells/mL was subcutaneously administered to the mice. Thereafter, group settings were carried out as follows. Group A was set to an untreated group, group B was set to an MMC alone administration group, group C was set to a combinatorial MMC and naive T-like cell administration group, and group D was set to a combinatorial MMC and effector T-like cell administration group. On days 3 and 4 after tumor inoculation, 0.2 mL of a saline (manufactured by Otsuka Pharmaceutical Co., Ltd.) was intraperitoneally administered to group A and the MMC at a dose of 2 mg/kg was intraperitoneally administered to other groups. On day 6 after the tumor inoculation, individual mouse T cells prepared in item (2) of Example 10 were prepared with an RPMI 1640 medium to a density of 5×10^8 cells/mL. The naive T-like cells and the effector T-like cells in 0.2 mL each were respectively administered to each individual of group C and group D via the tail veins. […]
In order to assay the antitumor activity in the evaluation system performed in item (3) of Example 10, a tumor size in each individual on day 14 after the tumor inoculation was determined with an electronic caliper. […]

CD3e^+ T cells in blood [4] = experiment: T cell count in blood after MMC and T cell transfer, syngeneic tumor model C57BL/6-hB16F10
Procedure: In a similar manner to item (5) of Example 1, expansion of mouse T cells was carried out, however, the human CH-296 was not used, and the cells on day 6 of culture were collected. The cells were subjected to each experiment.
The cells obtained in item (1) of Example 10 were collected to take a required amount, and centrifuged at 500×g for 5 minutes at room temperature to remove the supernatant. Thereafter, the cells were suspended in DPBS containing 0.5% BSA and 2 mM disodium ethylenediaminetetraacetate (hereinafter referred to as 0.5% BSA/DPBS) to a density of 1.11×10^8 cells/mL. CD62L ([…]) microbeads (mouse) (manufactured by MACS) were added to the cell solution in 10 μL per cell count of 1×10^7 cells, and incubated for 15 minutes while stirring sometimes in a dark place at 4° C. Then, to the cell solution was added 1 mL of 0.5% BSA/DPBS per cell count of 1×10^7 cells, and the mixture was centrifuged at 500×g for 5 minutes at room temperature to remove the supernatant. After that, 0.5 mL of 0.5% BSA/DPBS per cell count of 1×10^8 cells was added thereto, suspended sufficiently, and allowed to stand on ice to afford a CD62L microbeads target cell solution. An LS column (manufactured by MACS, hereinafter referred to as a separation column) was provided to a VarioMACS (trademark) separator (manufactured by MACS, hereinafter referred to as a separation apparatus) and rinsed with 3 mL of 0.5% BSA/DPBS. The CD62L microbeads-labeled cell solution was added to the column for elution and further rinsed with 9 mL of 0.5% BSA/DPBS to collect an eluate, thereby obtaining CD62L^− cells as effector T-like cells. The column was removed from the separation apparatus, and CD62L^+ cells were collected as naive T-like cells by extrusion with a plunger attached to the separation apparatus after addition of 5 mL of a buffer.
Hair removal of about 9 cm^2 in the right inguina of 7-week old female C57BL/6 mice was effected under anesthesia, and 0.1 mL of hB16F10 suspended in an RPMI 1640 medium to a density of 4×10^6 cells/mL was subcutaneously administered to the mice. […]

For `O=P1(N(CCCl)CCCl)NCCCO1` (stereo not drawn) [CPA, cyclophosamide], the “Rate of T cells (%)” value (CD3e^+ T cells in blood [1]) was 52.2% and the “Tumor Size (mm^2) On day 11” value (hB16F10 [2]) was 32.6 mm^2.

`CO[C@@]12[C@H](COC(N)=O)C3=C(C(=O)C(C)=C(N)C3=O)N1C[C@@H]1N[C@@H]12` [MMC, mitomycin C] was tested, and the “Tumor Size (mm^2)” value (hB16F10 [3]) was 82.5 mm^2, the “Rate of T Cells On Day 4 after Cell Administration” value (CD3e^+ T cells in blood [4]; group A (untreated) defined as 100%, MMC 2 mg/kg i.p. days 3 and 4, cells via tail vein day 6) was 118.2% and the “Rate of T Cells Immediately before Cell Administration” value (CD3e^+ T cells in blood [4]; group A (untreated) defined as 100%, MMC 2 mg/kg i.p. on days 3 and 4 after tumor inoculation) was 84.1%. The “Recovery Rate of T Cells” value (CD3e^+ T cells in blood [4]; ratio of T cell number on day 4 after cell administration to number immediately before) was 1.4.
